Results reported in US8324406B2, “Antitumoral dihydropyran-2-one compounds” (priority 2006, dated 2012).
Where two headings read alike, the source gives them in different places.

Columns and labels:
Experiment in all cases: cells
Assay type in all cases: cell-based
Conditions in all cases: Homo sapiens; for IC (TGI): read-out: TGI
HT29 = tested on: HT29
Source text: (§1) The aim of this assay is to evaluate the in vitro cytostatic (ability to delay or arrest tumor cell growth) or cytotoxic (ability to kill tumor cells) activity of the samples being tested.
(§2) Evaluation of Cytotoxic Activity Using the SBR Colorimetric Assay
(§3) A colorimetric type of assay, using sulforhodamine B (SRB) reaction has been adapted for a quantitative measurement of cell growth and viability (following the technique described by Skehan P et al. J. Natl. Cancer Inst. 1990, 82, 1107-1112).
(§4) This form of assay employs SBS-standard 96-well cell culture microplates (Faircloth et al. Methods in cell science, 1988, 11(4), 201-205; Mosmann et al, Journal of. Immunological. Methods, 1983, 65(1-2), 55-63). All the cell lines used in this study, derived from different types of human cancer, were obtained from the American Type Culture Collection (ATCC).
(§5) Cells were maintained in Dulbecco's Modified Eagle Medium (DMEM) supplemented with 10% Fetal Bovine Serum (FBS), 2 mM L-glutamine, 100 U/mL penicillin and 100 U/mL streptomycin at 37° C., 5% CO2 and 98% humidity. For the experiments, cells were harvested from subconfluent cultures using trypsinization and resuspended in fresh medium before counting and plating.
(§6) Cells were seeded in 96 well microtiter plates at 5×10^3 cells per well in aliquots of 150 μL, and allowed to attach to the plate surface for 18 hours in drug free medium. One control (untreated) plate of each cell line was fixed (as described below) and used for time zero reference value. Afterwards, test samples were added to the cultures in ten serial dilutions, in aliquots of 50 μL, ranging from 10 to 0.00262 μg/mL. After 48 hours exposure, the antitumor effect was estimated by the SRB method: Briefly, cells were washed twice with PBS, fixed for 15 min in 1% glutaraldehyde solution, rinsed twice in PBS, and stained in 0.4% SRB solution for 30 min at room temperature. Cells were then rinsed several times with 1% acetic acid solution and air-dried. SRB was then extracted in 10 mM trizma base solution and the absorbance measured in an automated spectrophotometric plate reader at 490 nm. Cell survival was expressed as percentage of control cell growth. The final effect of the sample being tested was estimated by applying the NCI algorithm (Boyd M R and Paull K D. Drug Dev. Res. 1995, 34, 91-104).
(§7) Using the mean±SD of triplicate cultures, a dose-response curve was automatically generated using nonlinear regression analysis. Three reference parameters were calculated (NCI algorithm) by automatic interpolation: GI50=concentration that produces 50% growth inhibition; TGI=total growth inhibition (cytostatic effect) and LC50=concentration that produces 50% net cell killing (cytotoxic effect).

MDA-MB-231 = tested on: MDA-MB-231
Source text: as §1, §2, §3, §4, §5, §6, §7

A549 = tested on: A549
Source text: as §1, §2, §3, §4, §5, §6, §7

[1] = HT-29, HT29, 48 hours exposure, SRB, 50% net cell killing (cytotoxic effect), read-out: LC50 (the source's name)
[2] = HT-29, HT29, 48 hours exposure, SRB, concentration that produces 50% growth inhibition, read-out: GI50
[3] = HT-29, HT29, 48 hours exposure, SRB, total growth inhibition (cytostatic effect)
[4] = MDA-MB-231, 48 hours exposure, SRB, 50% net cell killing (cytotoxic effect), read-out: LC50 (the source's name)
[5] = MDA-MB-231, 48 hours exposure, SRB, concentration that produces 50% growth inhibition, read-out: GI50
[6] = MDA-MB-231, 48 hours exposure, SRB, total growth inhibition (cytostatic effect)
[7] = A549, 48 hours exposure, SRB, 50% net cell killing (cytotoxic effect), read-out: LC50 (the source's name)
[8] = A549, 48 hours exposure, SRB, concentration that produces 50% growth inhibition, read-out: GI50
[9] = A549, 48 hours exposure, SRB, total growth inhibition (cytostatic effect)
[10] = MDA-MB-231, 48 h, read-out: LC50

Row | SMILES | CC50 (HT29; [1]) | GI50 (HT29; [2]) | IC (TGI) (HT29; [3]) | CC50 (MDA-MB-231; [4]) | GI50 (MDA-MB-231; [5]) | IC (TGI) (MDA-MB-231; [6]) | CC50 (A549; [7]) | GI50 (A549; [8]) | IC (TGI) (A549; [9]) | GI50 (HT29; HT-29, 48 h) | CC50 (HT29; HT-29, 48 h, read-out: LC50) | IC (TGI) (HT29; HT-29, 48 h) | GI50 (MDA-MB-231; MDA-MB-231, 48 h) | CC50 (MDA-MB-231; [10]) | IC (TGI) (MDA-MB-231; MDA-MB-231, 48 h) | GI50 (A549; A549, 48 h) | CC50 (A549; A549, 48 h, read-out: LC50) | IC (TGI) (A549; A549, 48 h)
1 | COC1=CC[C@@H]([C@@H](C)/C=C(C)/C=C\C=C/C(=O)N[C@H](C(=O)N/C=C\C[C@@H](C/C=C(\C)Cl)OC(N)=O)C(C)C)OC1=O [(21S)-5] | 3.88 nM | 2.53 nM | 2.87 nM | 103 nM | 4.56 nM | 0.0186 µM | > 1690 nM | 6.92 nM | 0.0287 µM |  |  |  |  |  |  |  |  | 
2 | COC1=CC[C@@H]([C@@H](C)/C=C(C)/C=C\C=C/C(=O)N[C@H](C(=O)N/C=C\C[C@H](C/C=C(\C)Cl)OC(N)=O)C(C)C)OC1=O [Compound 5] | > 169 nM | 0.0439 nM | 0.128 nM | 4.9 nM | 0.103 nM | 0.000456 µM | > 169 nM | 0.0608 nM | 0.000321 µM |  |  |  |  |  |  |  |  | 
3 | COC1=CC[C@@H]([C@@H](C)/C=C(C)/C=C\C=C\C(=O)N[C@H](C(=O)N/C=C\C[C@H](C/C=C(\C)Cl)OC(N)=O)C(C)(C)C)OC1=O [Compound 8] |  |  |  |  |  |  |  |  |  | 2.14 nM | 6.27 nM | 3.13 nM | 3.46 nM | 41.2 nM | 0.0101 µM | 3.63 nM | > 1650 nM | 0.013 µM
4 | COC1=CC[C@@H]([C@@H](C)/C=C(C)/C=C\C=C/C(=O)N[C@H](C(=O)N/C=C\C[C@H](C/C=C(\C)Cl)O[Si](C)(C)C(C)(C)C)C(C)(C)C)OC1=O [Compound 29a] | 4430 nM | 605 nM | 1420 nM | 6200 nM | 1180 nM | 2.8 µM | 8560 nM | 886 nM | 3.4 µM |  |  |  |  |  |  |  |  | 
5 | COC1=CC[C@@H]([C@@H](C)/C=C(C)/C=C\C=C/C(=O)N[C@@H](C(N)=O)C(C)(C)C)OC1=O [(15R)-7] | 1310 nM | 346 nM | 593 nM | > 24700 nM | 766 nM | 2.47 µM | > 24700 nM | 1040 nM | 3.46 µM |  |  |  |  |  |  |  |  | 
6 | COC1=CC[C@@H]([C@@H](C)/C=C(C)/C=C\C=C/C(=O)N[C@@H](Cc2ccccc2)C(=O)N/C=C\C[C@H](C/C=C(\C)Cl)O[Si](C)(C)C(C)(C)C)OC1=O [Compound 29d] | 928 nM | 829 nM | 872 nM | 1830 nM | 1100 nM | 1.39 µM | 1380 nM | 464 nM | 0.801 µM |  |  |  |  |  |  |  |  | 
7 | C/C=C\C[C@@H](C/C=C\NC(=O)[C@@H](NC(=O)\C=C/C=C\C(C)=C\[C@H](C)[C@@H]1CC=C(OC)C(=O)O1)C(C)(C)C)OC(N)=O [Compound 4] |  | < 0.431 nM | 0.928 nM |  | 0.613 nM | 0.00149 µM |  | 0.595 nM | 0.00245 µM |  | 1.12 nM |  |  | 8.23 nM |  |  | > 1640 nM | 
8 | COC1=CC[C@@H]([C@@H](C)/C=C(C)/C=C\C=C/C(=O)N[C@H](C(=O)N/C=C\C[C@@H](O)C/C=C(\C)Cl)C(C)C)OC1=O [Compound 30c] | > 182 nM | 0.474 nM | 0.838 nM | 52.8 nM | 0.983 nM | 0.00583 µM | > 182 nM | 0.71 nM | 0.0031 µM |  |  |  |  |  |  |  |  | 
9 | COC1=CC[C@@H]([C@@H](C)/C=C(C)/C=C/C=C/C(=O)N[C@H](C(=O)N/C=C\C[C@H](C/C=C(\C)Cl)O[Si](C)(C)C(C)(C)C)C(C)(C)C)OC1=O [Compound 37] | 10000 nM | 1920 nM | 2950 nM | > 14800 nM | 3100 nM | 5.61 µM | 13900 nM | 3540 nM | 6.64 µM |  |  |  |  |  |  |  |  | 
